Experimental data taken from the NIST ThermoML archive (doi:10.1016/j.jct.2017.06.001).
± gives the expanded uncertainty stated by the source.

Test: xn = mol fraction of the nth substance listed
Conditions: 100 kPa, Liquid; for mass density: Vibrating tube method; for speed of sound: 288.15 K, Frequency=5 MHz, Pulse-echo method

OCCCCCO [1,5-pentanediol] + O
mass density [kg/m3]
Conditions	278.15 K	283.15 K
x1 = 0.005	999.89 ± 0.53	999.55 ± 0.53
x1 = 0.0101	1000.22 ± 1	999.78 ± 1
x1 = 0.0196	1001.39 ± 1	1000.73 ± 1
x1 = 0.0251	1002.34 ± 1	1001.54 ± 1
x1 = 0.0304	1003.39 ± 1	1002.41 ± 1
x1 = 0.05	1006.63 ± 1	1005.19 ± 1
x1 = 0.0769	1009.88 ± 1.1	1007.89 ± 1.1
x1 = 0.1002	1012.01 ± 1.1	1009.64 ± 1.1
x1 = 0.1438	1013.87 ± 1.1	1011.18 ± 1.1
x1 = 0.1845	1014.45 ± 1.1	1011.58 ± 1.1
x1 = 0.2503	1014 ± 1.2	1010.96 ± 1.2
x1 = 0.3	1013.14 ± 1.2	1010.06 ± 1.2
x1 = 0.3343	1012.59 ± 1.3	1009.43 ± 1.3
x1 = 0.4171	1010.69 ± 1.4	1007.58 ± 1.4
x1 = 0.454	1009.8 ± 1.4	1006.71 ± 1.4
x1 = 0.5003	1008.7 ± 1.5	1005.6 ± 1.5
x1 = 0.5362	1007.8 ± 1.5	1004.7 ± 1.5
x1 = 0.6177	1006 ± 1.7	1003 ± 1.7
x1 = 0.6478	1005.3 ± 1.7	1002.3 ± 1.7
x1 = 0.7025	1004.2 ± 1.8	1001.2 ± 1.8
x1 = 0.7504	1003.3 ± 1.9	1000.3 ± 1.9
x1 = 0.7927	1002.5 ± 2	999.4 ± 2
x1 = 0.8605	1001.1 ± 2.1	998.1 ± 2.1
x1 = 0.9004	1000.2 ± 2.2	997.3 ± 2.2
x1 = 0.9496	999.1 ± 2.3	996.1 ± 2.3
x1 = 1	998 ± 2.1	995 ± 2.1

Conditions	speed of sound [m/s]
x1 = 0.0001	1467 ± 1.1
x1 = 0.0002	1467.6 ± 1.1
x1 = 0.0004	1468.5 ± 1.1
x1 = 0.0007	1469.7 ± 1.1
x1 = 0.001	1471.1 ± 1.1
x1 = 0.0013	1472.4 ± 1.1
x1 = 0.0018	1474.5 ± 1.1
x1 = 0.0025	1477.3 ± 1.1
x1 = 0.0032	1480.3 ± 1.1
x1 = 0.0039	1483.3 ± 1.1
x1 = 0.0047	1486.5 ± 1.1
x1 = 0.0053	1489.1 ± 1.1
x1 = 0.0059	1491.7 ± 1.1
x1 = 0.0066	1494.6 ± 1.1
x1 = 0.0074	1497.4 ± 1.1
x1 = 0.0079	1499.7 ± 1.1
x1 = 0.0086	1502.2 ± 1.1
x1 = 0.0092	1504.6 ± 1.1
x1 = 0.0098	1507 ± 1.1
x1 = 0.0105	1509.5 ± 1.1
x1 = 0.0112	1512 ± 1.2
x1 = 0.0118	1514.3 ± 1.2
x1 = 0.0125	1516.8 ± 1.2
x1 = 0.0131	1519 ± 1.2
x1 = 0.0138	1521.4 ± 1.2
x1 = 0.0144	1523.8 ± 1.2
x1 = 0.0151	1526.1 ± 1.2
x1 = 0.0157	1528.2 ± 1.2
x1 = 0.0164	1530.5 ± 1.2
x1 = 0.0171	1532.7 ± 1.2
x1 = 0.0177	1535 ± 1.2
x1 = 0.0184	1537.1 ± 1.2
x1 = 0.0188	1538.3 ± 1.2
x1 = 0.0193	1540.1 ± 1.2
x1 = 0.0199	1541.8 ± 1.2
x1 = 0.0204	1543.6 ± 1.2
x1 = 0.021	1545.5 ± 1.2
x1 = 0.0219	1548.2 ± 1.2
x1 = 0.0226	1550.3 ± 1.2
x1 = 0.0233	1552.4 ± 1.2
x1 = 0.024	1554.5 ± 1.2
x1 = 0.0247	1556.6 ± 1.2
x1 = 0.0256	1559.3 ± 1.2
x1 = 0.0266	1562.2 ± 1.2
x1 = 0.0278	1565.4 ± 1.2
x1 = 0.0289	1568.3 ± 1.2
x1 = 0.0299	1571 ± 1.2
x1 = 0.0309	1573.7 ± 1.2
x1 = 0.0319	1576.4 ± 1.2
x1 = 0.0331	1579.3 ± 1.2
x1 = 0.0342	1582.3 ± 1.2
x1 = 0.0353	1584.9 ± 1.2
x1 = 0.0365	1587.7 ± 1.2
x1 = 0.0376	1590.3 ± 1.2
x1 = 0.0387	1592.9 ± 1.2
x1 = 0.0398	1595.3 ± 1.2
x1 = 0.0409	1597.9 ± 1.2
x1 = 0.042	1600.2 ± 1.2
x1 = 0.0431	1602.6 ± 1.2
x1 = 0.0445	1605.6 ± 1.2
x1 = 0.0456	1607.8 ± 1.2
x1 = 0.0473	1611.2 ± 1.2
x1 = 0.0482	1612.9 ± 1.2
x1 = 0.049	1614.5 ± 1.2
x1 = 0.0499	1616.2 ± 1.2
x1 = 0.0513	1618.7 ± 1.2
x1 = 0.0529	1621.5 ± 1.2
x1 = 0.0547	1624.7 ± 1.2
x1 = 0.0561	1627.2 ± 1.2
x1 = 0.0576	1629.6 ± 1.2
x1 = 0.0595	1632.6 ± 1.2
x1 = 0.0613	1635.3 ± 1.2
x1 = 0.0632	1638.1 ± 1.2
x1 = 0.0654	1641.4 ± 1.2
x1 = 0.0673	1644 ± 1.2
x1 = 0.0692	1646.6 ± 1.2
x1 = 0.0715	1649.5 ± 1.2
x1 = 0.0744	1653 ± 1.2
x1 = 0.0768	1655.8 ± 1.2
x1 = 0.0796	1658.9 ± 1.2
x1 = 0.0824	1661.8 ± 1.2
x1 = 0.0856	1665 ± 1.2
x1 = 0.0887	1667.9 ± 1.2
x1 = 0.0921	1670.8 ± 1.2
x1 = 0.0965	1674.4 ± 1.2
x1 = 0.1006	1677.4 ± 1.2
x1 = 0.1051	1680.5 ± 1.2
x1 = 0.1102	1683.6 ± 1.2
x1 = 0.1153	1686.5 ± 1.2
x1 = 0.1208	1689.2 ± 1.2
x1 = 0.1238	1690.6 ± 1.2
x1 = 0.1303	1693.2 ± 1.2
x1 = 0.1382	1696 ± 1.3
x1 = 0.1442	1697.7 ± 1.3
x1 = 0.1503	1699.3 ± 1.3
x1 = 0.1556	1700.5 ± 1.3
x1 = 0.1612	1701.6 ± 1.3
x1 = 0.167	1702.6 ± 1.3
x1 = 0.1694	1703 ± 1.3
x1 = 0.1748	1703.7 ± 1.3
x1 = 0.1799	1704.3 ± 1.3
x1 = 0.1852	1704.8 ± 1.3
x1 = 0.1903	1705.2 ± 1.3
x1 = 0.1955	1705.6 ± 1.3
x1 = 0.2007	1705.9 ± 1.3
x1 = 0.2046	1706 ± 1.3
